Molecules are shown by their SMILES.

In US20250074913A1, “PYRAZOLE DERIVATIVES AS STING AGONISTS” (Hoffmann-La Roche Inc., priority 2022, published 2025) one finds EC50 data, which are given here for 26 compounds.

The test relates to interferon regulatory factor (IRF) pathway in THP1-Dual™ cells. The test is described as follows: THP1-Dual reporter gene assay (Agonist_THP1_EC50). As to conditions: Homo sapiens, 20-24 hrs compound treatment, Lucia luciferase (IRF) readout. It counts as cell-based. An excerpt:
This is the cellular reporter assay to evaluate compounds' agonism to interferon regulatory factor (IRF) pathway in THP1-Dual™ cells (InvivoGen, cat number thpd-nfis). THP1-Dual™ cells were derived from the human THP-1 monocyte cell line by stable integration lucia luciferase gene, a new secreted luciferase reporter gene, under the control of an ISG54 (interferon-stimulated gene) minimal promoter in conjunction with five interferon (IFN)-stimulated response elements. As a result, THP1-Dual™ cells allow the study of the IRF pathway, by assessing the activity of Lucia luciferase. Lucia luciferase protein is readily measurable in the cell culture supernatant when using QUANTI-Luc™ (InvivoGen, cat: rep-qlcg-500).
After 20-24 hrs compound treatment in THP1-Dual cells, the compounds' agonism to IRF pathway and cell toxicity were tested by measuring luminescence and OD 450 on an Envision plate reader.
On the day of experiment, 30 μL of test medium (RPMI 1640, 2 mM L-glutamine, 25 mM HEPES, […] heat-inactivated fetal bovine serum) was dispensed in a white 384-well plate (Grenier, cat: 781098) containing the serially diluted compounds (final 1% DMSO) transferred by the Echo550 machine. Then 30 μL of cell suspension (˜33,000 cells, 1.1×10^6 cells/mL) per well was added immediately by thermo multidrop combi dispenser for incubation 20-24 h at 37° C., […]. At the end of the incubation, 10 μL of cellular supernatant was transferred to proxiplate 384-plus plate for IRF detection, and then 10 μL of QUANTI-Luc™ Gold solution was added to the plate that proceeded with the measurement immediately. To detect cell viability, 30 μL of the CCK-8 working solution (Dojindo Molecular Technologies, cat: CK04-20) was added to the cell plate, which was Incubated for 2 hrs in the incubator to measure the absorbance at 450 nm using Envision.
For orientation: In a reporter assay the amount or activity of a reporter protein is the signal.

Broadly, the EC50 is the concentration giving half of the maximal effect. The compound `Cc1nn(CCCC#N)c(-c2n[nH]c(-c3nc(C(N)=O)cc4c3cnn4C)n2)c1O` [Example 24, 4-[3-[2-(3-cyanopropyl)-4-hydroxy-5-methyl-pyrazol-3-yl]-1H-1,2,4-triazol-5-yl]-1-methyl-pyrazolo[4,3-c]pyridine-6-carboxamide] came in with an EC50 of 0.127 µM. As to `Cc1nn(CCn2ccnc2)c(-c2n[nH]c(-c3nc(C(N)=O)cc4c3cnn4C)n2)c1O` [Example 23, 4-[3-[4-hydroxy-2-(2-imidazol-1-ylethyl)-5-methyl-pyrazol-3-yl]-1H-1,2,4-triazol-5-yl]-1-methyl-pyrazolo[4,3-c]pyridine-6-carboxamide], it took 0.275 µM to reach a half-maximal effect (EC50). Consider `Cc1cc2c(C(N)=O)nn(-c3nc(-c4c(O)c(C)nn4CCc4ccncc4)n[nH]3)c2cn1` [Example 46, 1-[3-[4-hydroxy-5-methyl-2-[2-(4-pyridyl)ethyl]pyrazol-3-yl]-1H-1,2,4-triazol-5-yl]-5-methyl-pyrazolo[3,4-c]pyridine-3-carboxamide], for which the EC50 was found to be 0.097 µM. The compound `COCc1ccc(CCn2nc(C)c(O)c2-c2nc(-n3nc(C(N)=O)c4cc(C)ncc43)co2)cc1` [Example 89, 1-[2-[4-hydroxy-2-[2-[4-(methoxymethyl)phenyl]ethyl]-5-methyl-pyrazol-3-yl]oxazol-4-yl]-5-methyl-pyrazolo[3,4-c]pyridine-3-carboxamide] showed a 50% effective concentration (EC50) of 0.055 µM. Regarding `CCCCn1nc(C)c(O)c1-c1n[nH]c(-n2nc(C(N)=O)c3cc(C)ncc32)n1` [Example 43, 1-[3-(2-butyl-4-hydroxy-5-methyl-pyrazol-3-yl)-1H-1,2,4-triazol-5-yl]-5-methyl-pyrazolo[3,4-c]pyridine-3-carboxamide], the EC50 is 0.015 µM.

Compound `Cc1cc2c(C(N)=O)nn(-c3coc(-c4c(O)c(C)nn4CCc4cccnc4)n3)c2cn1` [Example 74, 1-(2-(4-hydroxy-3-methyl-1-(2-(pyridin-3-yl)ethyl)-1H-pyrazol-5-yl)oxazol-4-yl)-5-methyl-1H-pyrazolo[3,4-c]pyridine-3-carboxamide] yielded an EC50 of 0.17 µM. The value for `CCn1nc(C)c(O)c1-c1nc(-c2nc(C(N)=O)cc3c2cnn3C)c(C(F)F)o1` [Example 10, 4-[5-(difluoromethyl)-2-(2-ethyl-4-hydroxy-5-methyl-pyrazol-3-yl)oxazol-4-yl]-1-methyl-pyrazolo[4,3-c]pyridine-6-carboxamide] was 0.419 µM; that for `CCn1nc(C)c(O)c1-c1n[nH]c(-c2nc(C(N)=O)n3cc(C)ncc23)n1` [Example 1, 1-[3-(2-ethyl-4-hydroxy-5-methyl-pyrazol-3-yl)-1H-1,2,4-triazol-5-yl]-6-methyl-imidazo[1,5-a]pyrazine-3-carboxamide] was 0.202 µM; that for `Cc1cc2c(C(N)=O)nn(-c3nc(-c4c(O)c(C)nn4CCc4ccc(CO)cc4)n[nH]3)c2cn1` [Example 68, 1-[3-[4-hydroxy-2-[2-[4-(hydroxymethyl)phenyl]ethyl]-5-methyl-pyrazol-3-yl]-1H-1,2,4-triazol-5-yl]-5-methyl-pyrazolo[3,4-c]pyridine-3-carboxamide] was 0.027 µM. The compound `Cc1nn(CCn2cncn2)c(-c2n[nH]c(-c3nc(C(N)=O)cc4c3cnn4C)n2)c1O` [Example 39, 4-[3-[4-hydroxy-5-methyl-2-[2-(1,2,4-triazol-1-yl)ethyl]pyrazol-3-yl]-1H-1,2,4-triazol-5-yl]-1-methyl-pyrazolo[4,3-c]pyridine-6-carboxamide] gave an EC50 of 0.225 µM. The value for `Cc1cn2c(C(N)=O)nc(-c3nc(-c4c(O)c(C)nn4CCc4ccc(CO)cc4)n[nH]3)c2cn1` [Example 71, 1-[3-[4-hydroxy-2-[2-[4-(hydroxymethyl)phenyl]ethyl]-5-methyl-pyrazol-3-yl]-1H-1,2,4-triazol-5-yl]-6-methyl-imidazo[1,5-a]pyrazine-3-carboxamide] was 0.015 µM.

Take `Cc1nn(CCn2ccnn2)c(-c2n[nH]c(-c3nc(C(N)=O)cc4c3cnn4C)n2)c1O` [Example 36, 4-[3-[4-hydroxy-5-methyl-2-[2-(triazol-1-yl)ethyl]pyrazol-3-yl]-1H-1,2,4-triazol-5-yl]-1-methyl-pyrazolo[4,3-c]pyridine-6-carboxamide]: the EC50 was found to be 0.24 µM. Consider `COCC#CCCn1nc(C)c(O)c1-c1n[nH]c(-n2nc(C(N)=O)c3cc(C)ncc32)n1` [Example 81, 1-[3-[4-hydroxy-2-(5-methoxypent-3-ynyl)-5-methyl-pyrazol-3-yl]-1H-1,2,4-triazol-5-yl]-5-methyl-pyrazolo[3,4-c]pyridine-3-carboxamide], for which the EC50 worked out at 0.065 µM.

Consider `CCn1nc(C)c(O)c1-c1n[nH]c(-n2nc(C(N)=O)c3cc(C)ncc32)n1` [Example 22, 1-[3-(2-ethyl-4-hydroxy-5-methyl-pyrazol-3-yl)-1H-1,2,4-triazol-5-yl]-5-methyl-pyrazolo[3,4-c]pyridine-3-carboxamide], for which it took 0.082 µM to reach a half-maximal effect (EC50). As for `CCn1nc(C)c(O)c1-c1n[nH]c(-c2cc(C(N)=O)c3cc(C)ncn23)n1` [Example 20, 7-[3-(2-ethyl-4-hydroxy-5-methyl-pyrazol-3-yl)-1H-1,2,4-triazol-5-yl]-3-methyl-pyrrolo[1,2-c]pyrimidine-5-carboxamide], the EC50 was found to be 0.283 µM.

Turning to `COc1ccc(CCn2nc(C)c(O)c2-c2n[nH]c(-n3nc(C(N)=O)c4cc(C)ncc43)n2)cc1` [Example 50, 1-[3-[4-hydroxy-2-[2-(4-methoxyphenyl)ethyl]-5-methyl-pyrazol-3-yl]-1H-1,2,4-triazol-5-yl]-5-methyl-pyrazolo[3,4-c]pyridine-3-carboxamide], the EC50 was 0.025 µM. `CCn1nc(C)c(O)c1-c1n[nH]c(-c2nc(C(N)=O)n3cc(C)ccc23)n1` [Example 19, 1-[3-(2-ethyl-4-hydroxy-5-methyl-pyrazol-3-yl)-1H-1,2,4-triazol-5-yl]-6-methyl-imidazo[1,5-a]pyridine-3-carboxamide]: it took 0.408 µM to reach a half-maximal effect (EC50). On to `CCn1nc(C)c(O)c1-c1nc(-c2nc(C(N)=O)n3cc(C)ncc23)co1` [Example 9, 1-[2-(2-ethyl-4-hydroxy-5-methyl-pyrazol-3-yl)oxazol-4-yl]-6-methyl-imidazo[1,5-a]pyrazine-3-carboxamide], for which the EC50 was 0.829 µM.

The compound `Cc1cc2c(C(N)=O)nn(-c3nc(-c4c(O)c(C)nn4CCc4ccccc4)nn3C)c2cn1` [Example 48, 1-[5-[4-hydroxy-5-methyl-2-(2-phenylethyl)pyrazol-3-yl]-2-methyl-1,2,4-triazol-3-yl]-5-methyl-pyrazolo[3,4-c]pyridine-3-carboxamide] gave an EC50 of 0.064 µM.

In the case of `CCn1nc(C)c(O)c1-c1n[nH]c(-c2nc(C(N)=O)n3cc(Cl)ncc23)n1` [Example 18, 6-chloro-1-[3-(2-ethyl-4-hydroxy-5-methyl-pyrazol-3-yl)-1H-1,2,4-triazol-5-yl]imidazo[1,5-a]pyrazine-3-carboxamide], the EC50 worked out at 0.548 µM. For `Cc1nn(CCC#N)c(-c2n[nH]c(-c3nc(C(N)=O)cc4c3cnn4C)n2)c1O` [Example 25, 4-[3-[2-(2-cyanoethyl)-4-hydroxy-5-methyl-pyrazol-3-yl]-1H-1,2,4-triazol-5-yl]-1-methyl-pyrazolo[4,3-c]pyridine-6-carboxamide], the EC50 is 0.05 µM. As to `COc1ccc(CCn2nc(C)c(O)c2-c2nc(-n3nc(C(N)=O)c4cc(C)ncc43)co2)cc1` [Example 78, 1-(2-(4-hydroxy-1-(4-methoxyphenethyl)-3-methyl-1H-pyrazol-5-yl)oxazol-4-yl)-5-methyl-1H-pyrazolo[3,4-c]pyridine-3-carboxamide], the EC50 is 0.09 µM.

`COc1cccc(CCn2nc(C)c(O)c2-c2n[nH]c(-n3nc(C(N)=O)c4cc(C)ncc43)n2)c1` [Example 54, 1-[3-[4-hydroxy-2-[2-(3-methoxyphenyl)ethyl]-5-methyl-pyrazol-3-yl]-1H-1,2,4-triazol-5-yl]-5-methyl-pyrazolo[3,4-c]pyridine-3-carboxamide] gave an EC50 of 0.031 µM. The value for `Cc1cc2c(C(N)=O)nn(-c3coc(-c4c(O)c(C)nn4CCc4ccc(CN5CCOCC5)cc4)n3)c2cn1` [Example 88, 1-[2-[4-hydroxy-5-methyl-2-[2-[4-(morpholinomethyl)phenyl]ethyl]pyrazol-3-yl]oxazol-4-yl]-5-methyl-pyrazolo[3,4-c]pyridine-3-carboxamide] was 0.179 µM; that for `CC#CCCn1nc(C)c(O)c1-c1n[nH]c(-n2nc(C(N)=O)c3cc(C)ncc32)n1` [Example 51, 1-[3-(4-hydroxy-5-methyl-2-pent-3-ynyl-pyrazol-3-yl)-1H-1,2,4-triazol-5-yl]-5-methyl-pyrazolo[3,4-c]pyridine-3-carboxamide] was 0.034 µM; that for `Cc1cn2c(C(N)=O)nc(-c3nc(-c4c(O)c(C)nn4CCc4ccc(CN5CCOCC5)cc4)n[nH]3)c2cn1` [Example 87, 1-[3-[4-hydroxy-5-methyl-2-[2-[4-(morpholinomethyl)phenyl]ethyl]pyrazol-3-yl]-1H-1,2,4-triazol-5-yl]-6-methyl-imidazo[1,5-a]pyrazine-3-carboxamide] was 0.053 µM.
